“Also recorded” adds a separate entry of the source. Read-outs that look alike come from different tables or passages of the source.
How the values were obtained:
[1] = test system: Abca4−/−Rdh8−/− mice; details: mouse, in vivo
[2] = test system: ROS generation in photoreceptors of Abca4−/−Rdh8−/− mice; assay: In vivo detection of ROS (DHE probe) in retinas of light-exposed Abca4−/−Rdh8−/− mice; set-up: species or system mouse; details: for ROS generation in photoreceptors (DHE signal): Example 3, DOX 10 mg/kg, GUB 2.0 mg/kg, SQ 0.5 mg/kg ip 30 min prior to light
Method: The ROS probe, DHE, at a dose of 20 mg/kg body weight was administered to Abca4^−/−Rdh8^−/− mice via intraperitoneal injection 30 min prior to light exposure. Eye cups obtained after removing the cornea, lens and vitreous body from enucleated eye globes 3 h post light illumination were fixed in 4% paraformaldehyde. Cryosections were prepared from fixed eye cups and cut at 12 am thickness for microscopic assessment of ROS signal fluorescence in the retina.
The ROS probe, DHE, at a dose of 20 mg/kg body weight in 25 μl of DMSO, was administered to Abca4^−/−Rdh8^−/− mice via intraperitoneal injection 1 h prior to light exposure. Eye cups obtained after removing the cornea, lens, and vitreous body from enucleated eye globes 3 h post light illumination were fixed in 4% paraformaldehyde. Cryosections were prepared from fixed eye cups and cut at 12-am thickness for microscopic assessment of ROS fluorescence in the retina with ImageJ software (National Institutes of Health).

[3] = test system: Abca4−/−Rdh8−/− mice; assay: Bright light-induced retinal degeneration in Abca4−/−Rdh8−/− mice, retinal histology and immunohistochemistry; type: in vivo, mouse; details: pretreatment before light 10,000 lux 30 min; 7-10 days after light exposure
Method: Retinal histology and immunohistochemistry (IHC) was performed as previously described. Briefly, eye cups free of cornea, lens and vitreous body were fixed in 2% glutaraldehyde/4% paraformaldehyde and processed for Epon embedding. Sections 1 am thick were cut and stained with toluidine blue for histological examination under a light microscope. IHC analysis was performed on 12 am thick cryosections prepared from 4% paraformaldehyde-fixed eye cups. Collected cryosections were subjected to examination for rhodopsin, PNA and DAPI expression.
Retinal immunohistochemistry (IHC) was carried out as previously described. Briefly, eyes were enucleated and eye cups were made to eliminate cornea, lens and vitreous body and fixed in 4% paraformaldehyde and processed for cryosectioning. 12 am thick cryosections were collected cryosections and subjected to examination for rhodopsin, peanut agglutinin lectin (PNA) and DAPI expression.
Retinal immunohistochemistry (IHC) was performed as previously described. Briefly, eyes were enucleated and, after removal of the cornea, lens and vitreous body, eye cups were fixed in 4% paraformaldehyde and processed for cryosectioning. Twelve μm thick cryosections were cut, collected and examined for rhodopsin expression, peanut agglutinin lectin (PNA) for cone sheath and nuclear DAPI staining. […]

[4] = test system: Abca4−/−Rdh8−/− mice; assay: Bright light-induced retinal degeneration in Abca4−/−Rdh8−/− mice, SLO autofluorescence imaging; type: in vivo, mouse; details: pretreatment before light 10,000 lux 30 min; SLO 8-9 days after light exposure
Method: SLO (Heidelberg Engineering, Heidelberg, Germany) was carried out for whole fundus imaging of mouse retinas. Mice were anesthetized by intraperitoneal injection of anesthetic cocktail indicated above, which was followed by pupil dilation using 1% tropicamide prior to SLO imaging under autofluorescence mode.
(§1) SLO (Heidelberg Engineering) was carried out for in vivo whole fundus imaging of mouse retinas. […] Numbers of autofluorescent spots were counted and subjected to statistical analyses as described below.
SLO (Heidelberg Engineering) was carried out for whole fundus imaging of mouse retinas in vivo. Mice were anesthetized, and their pupils were dilated as described above. SLO images were then acquired in the autofluorescence mode.

[5] = Quantification of selected drugs in mouse serum and eye by LC-MS; type: in vivo, C57BL/6J WT mice; details: for Eye ± SD / concentration at 30 min: 30 min after a single ip dose: DOX 10, GUB 2, SQ 0.5 mg per kilogram; for Eye ± SD: mice perfused with PBS; for concentration at 30 min: C57BL/6J, mouse, serum, intraperitoneal, read-out: Serum ± SD; for amount in eye compared with level in 0.1 mL of serum: eye volume taken as about 0.1 mL
Method: C57BL/6J WT mice at 6 weeks of age (Jackson Laboratory) were treated with DOX, GUB, or SQ at a single dose of 10, 2, and 0.5 mg per kilogram, respectively. The compound was dissolved in 50% DMSO in PBS (137 mM NaCl, 2.7 mM KCl, 0.67 mM […]). Next, to precipitate excess proteins, 0.3 ml of methanol was added to both the eye homogenate and 0.1 ml of serum. Samples were vortexed for 30 s followed by centrifugation for 15 min at 16,000 g. Clear supernatants were collected and used directly for LC-MS analysis. 2HPO4/KH2PO4, pH 7.4) and administrated by intraperitoneal injection. Thirty minutes later the mice were anesthetized. Blood samples were collected using the technique of cardiac puncture and subsequently centrifuged (5 min, 16,000 g) to collect serum. Prior to harvesting eyes, mice were intracardially perfused with PBS to minimalize blood contamination. Eye balls were immediately homogenized in 0.1 ml of PBS. The homogenate and serum samples were spiked with 100 pmols of internal standard (IS) (parazosin—2-[4-(2-furoyl)piperazin-1-yl]-6,7-dimethoxyquinazolin-4-amine (Sigma Aldrich) or clenbuterol—(RS)-1-(4-Amino-3,5-dichlorophenyl)-2-(tert-butylamino)ethanol (Sigma Aldrich)) for DOX, GUB or SQ quantification, respectively.
Mass spectrometry (MS) based detection and quantification of DOX, GUB, and SQ was performed with a L×Q linear ion trap mass spectrometer (Thermo Scientific) equipped with an electrospray ionization (ESI) interface and coupled to Agilent 1100 HPLC (Agilent Technologies). Separation of drugs and the internal standards was achieved on a reverse phase C18 Phenomenex HPLC column (250×4.60 mm; 5 μm) by a linear gradient of to 100% acetonitrile in water within 15 min at flow rate of 0.5 ml/min. All solvents contained 0.1% formic acid (v/v). The HPLC effluent was sprayed into the MS via an ESI probe operated in the positive ionization mode. Parameters of ionization and detection were tuned with synthetic standards for the drugs to achieve the highest possible sensitivity. Dox and parazosin (internal standard) were detected by selected reaction monitoring (SRM) using m/z 452.2→344.2 and 384.2→247.1 transitions whereas GUB, SQ and their corresponding IS, clenbuterol, was by fragmentation at m/z 231.1→214.0, 206.1→136.0, and 277.1→259.1, respectively. The elution times for DOX, GUB, and SQ were ˜12.8, 12.3, and 10.8 min, respectively. Both internal standards eluted at 12.0 min (FIG. 34). Calibration curves were calculated based on the linear relationship between ratios of SRM ion intensity peak area corresponding to the selected drug and the IS vs. molar ratios of the compounds in the range of 20-500 pmol (FIG. 34H).

[6] = test system: BALB/c mice; assay: Light-induced retinal degeneration in BALB/c mice, retinal morphology (OCT, histology, IHC); type: in vivo, mouse; details: ip pretreatment 30 min before 10,000 lux, 7 days after light
[7] = test system: Abca4−/−Rdh8−/− mice; assay: Bright light-induced retinal degeneration in Abca4−/−Rdh8−/− mice, OCT imaging of retinal structure; type: in vivo, mouse; details: for retinal / photoreceptor morphology by OCT imaging: pretreatment before light 10,000 lux 30 min, OCT 7 days after light exposure
[8] = test system: BALB/c mice; assay: Light-induced retinal degeneration in BALB/c mice, SLO autofluorescence imaging; type: in vivo, mouse; details: DOX 10, GUB 2.0, SQ 0.5 mg/kg, 7 days after light
Method: as §1
These drugs were administered to 4-week-old BALB/c mice by intraperitoneal injection 30 min prior to white light exposure at 10,000 lux for 1 h. Retinal morphology was assessed 7 days after light exposure by OCT imaging and histological examination.

[9] = test system: Abca4−/−Rdh8−/− mice; assay: Bright light-induced retinal degeneration in Abca4−/−Rdh8−/− mice, ERG retinal function; details: pretreatment before light 10,000 lux 30 min; ERG 7 days to 2 weeks after; listed as SQ
[10] = test system: visual pigment regeneration; assay: Effect on chromophore regeneration (ERG responses and 11-cis-retinal levels after bleaching); type: in vivo; details: SQ treatment
From the text: It is also worth noting that rhodopsin could be a central player in light-induced retinal degeneration, and that reduced amounts of rhodopsin protect the retina from light-induced degeneration. Therefore we examined the potential impact of the AC inhibitor SQ on chromophore regeneration given that AC is the central player in our newly identified GPCR signaling implicated in light-induced retinopathy (FIG. 1). […] Therefore, the possibility of an acute effect of pharmacological compounds on phototransduction could be ruled out.

Row | Structure (SMILES) | retinal function by ERG (a-wave and b-wave amplitudes) [1] | ROS production in the ONL / photoreceptors (DHE signal) ([2]; Example 1, pretreatment before light 10,000 lux 30 min, retinas 3 h after illumination) | retinal histology / immunohistochemistry (rhodopsin, PNA, DAPI; ONL) [3] | retinal autofluorescence spots by SLO imaging [4] | ROS generation in photoreceptors (DHE signal) [2] | Eye ± SD [5] | concentration at 30 min [5] | amount in eye compared with level in 0.1 mL of serum ([5]; listed as GUB) | retinal morphology / ONL (OCT, histology) [6] | retinal / photoreceptor morphology by OCT imaging ([7]; listed as GUB) | half maximal effective (protective) dose ([7]; protection from bright light-induced degeneration, dose-response, FIG. 25A/B) | autofluorescent spots by SLO [8] | retinal function by ERG (a-wave and b-wave amplitudes) [9] | amount in eye compared with level in 0.1 mL of serum [5] | retinal / photoreceptor morphology by OCT imaging [7] | ERG responses and 11-cis-retinal levels after bleaching [10]
1 | NCCOB(c1ccccc1)c1ccccc1 [2-APB, 2-aminoethoxydiphenyl borate] | protective effect | reduced ROS production | significantly preserved retinal morphology |  |  |  |  |  |  |  |  |  |  |  |  | 
2 | N=C(N)N/N=C/c1c(Cl)cccc1Cl [Guanbenz] |  |  | substantially preserved photoreceptor morphology | markedly less autofluorescence spots | decreased | 13.1 ± 4.7 pmol/eye | 0.07 ± 0.018 µM | comparable | retinal morphology of drug-treated mice was maintained | significantly prevented; also recorded: dose-dependent fashion | 0.3 mg/kg | prevented |  |  |  | 
3 | Nc1ncnc2c1ncn2C1CCCO1 (stereo not drawn) [SQ 22536] |  |  | substantially preserved photoreceptor morphology | dose-dependent effect | decreased | 5.6 ± 2.2 pmol/eye | 0.193 ± 0.055 µM |  | retinal morphology of drug-treated mice was maintained |  |  | prevented | substantial preservation of the scotopic ERG response; also recorded: substantial preservation of this response | 5 times lower | protected retinas from light-induced degeneration in a dose-dependent manner | no significant changes

Reference: patent US10426773B2, “Systems pharmacology for treating ocular disorders” (Case Western Reserve Univeristy, priority 2011, dated 2019)
